# Results published in patent US20050113348A1, “Vitamin D and vitamin D analogs or derivatives as new anti-hypertensive agents” (priority 2003, published 2005).
# Columns and labels:
# [1] = test system: renin mRNA, As4.1-hVDR cells; experiment: Renin mRNA by Northern blot in As4.1-hVDR cells (vitamin D analog screening); assay type: cell-based, mouse; design: Relative inhibitory activity (renin suppressive activity of Gemini analogues): key to the marks not given beside the values; conditions: for Relative inhibitory activity (renin suppressive activity of Gemini analogues): 24 hours at 10-8, 10^-9 and 10^-10 M, renin mRNA by Northern blot, relative to 1,25-dihydroxyvitamin D3
# Method: Vitamin D analogues listed in TABLE 1 were used to treat As4.1-hVDR cells at 10^−10, 10^−9 and 10^−8 M. Renin mRNA was analyzed by Northern blot. 36B4 is a control mRNA and represents a mouse acidic ribosomal phosphoprotein.
# FIG. 4 is an histogram of evaluation of Gemini analogues by Northern blot analysis. The 11 Gemini compounds listed in TABLE 2 (indicated) were used to treat As4.1 hVDR cells at 10^−10, 10^−9, and 10^−8 M for 24 hours. Renin mRNA was quantitated by Northern blots. The quantitative data obtained at 10^−10 and 10^−9 M are shown in A and B. The # of each compound corresponds to the number shown in TABLE 2. E, ethanol-treated control, VD, 1,25(OH)2D3.
# (§1) RNA isolation and northern blot. The kidney and liver were dissected and immediately placed into the Trizol Reagent (Invitrogen, Grand Island, N.Y.) for total RNA isolation according to the manufacturer's instruction. To determine renin or angiotensinogen mRNA expression, total RNA (20 μg/lane) was separated on a 1.2% agarose gel containing 0.6 M formaldehyde, transferred onto a Nylon membrane (MSI, Westborough, Mass.) and crosslinked in a UV crosslinker (Bio-Rad, Hercules, Calif.). Hybridization was performed as described by Li et al. (2001). Mouse renin and angiotensinogen cDNA probes were labeled with ^32P-dATP (ICN, Costa Mesa, Calif.) using the Prime-a-gene Labeling System (Promega, Madison, Wis.). After hybridization and washing, membranes were exposed to X-ray films at −80° C. for autoradiography. The relative amount of mRNA was quantitated using a Phospholmager (Molecular Dynamics, Sunnyvale, Calif.) and normalized with 36B4 mRNA.
# As4.1 cell culture and transfection. As4.1 cells (ATCC, Manassas, Va.) were cultured in DMEM supplemented with 10% FBS at 37° C. and 5% CO2. For transient transfection, the cells were grown in 10-cm dishes to 50% confluence and transfected with pcDNA3.1, pcDNA-hVDR or pcDNA-PTH/PTHrPR plasmid (10 μg DNA/dish) by the standard calcium phosphate method. Twenty-four hr after transfection, the cells were treated for 24 hr with 5×10^−8 M of 1,25(OH)2D3 or ethanol in serum-free media, or with different doses of bovine PTH(1-34) as indicated. Total RNA was isolated and analyzed for renin mRNA expression by northern blot. For stable transfection, As4.1 cells were transfected with pcDNA3.1 or pcDNA-hVDR plasmid by the use of Superfect reagent (Qiagen, Valencia, Calif.) and selected with 350 μg/ml of G418 for two weeks. Individual colonies were picked, expanded and selected for VDR expression. The As4.1-hVDR stable clones were treated with different doses of 1,25(OH)2D3 for 24 hr in serum-free media, and total RNA were analyzed by northern blot to examine renin expression.
# [2] = test system: 4.1 kb renin gene promoter (Ren-1c), As4.1-hVDR cells; experiment: Renin gene promoter luciferase reporter assay in As4.1-hVDR cells; assay type: cell-based, mouse; conditions: 10^−8 M; for Suppression of renin promoter activity (luciferase): pGL-4.1 kb-Luc transfected As4.1-hVDR cells
# Source text: As4.1-hVDR cells were transfected with pGL-4.1 kb-Luc, and treated with ethanol (E), 10^−8 M of 1,25(OH)2D3 (VD3) and different analogues as indicated.
# A. Expression of hVDR mRNA in stable As4.1 clones. P, parental As4.1 cells; #57, As4.1 clone 57 stably transfected with pcDNA-hVDR; V, As4.1 clone stably transfected with the empty vector pcDNA3.1. B. Renin mRNA expression in As4.1 clone V (Vector) and #57 treated with ethanol (E) or different doses of 1,25(OH)2D3 as indicated. c. As4.1-hVDR cells (clone #57) were transfected with pGL3-Control, pGL-4.1 kb or pGL-117 bp luciferase reporter plasmid and then treated with ethanol (closed bar) or 10^−8 M of 1,25(OH)2D3 (open bar). Luciferase activity was determined 48 hr after transfection. Similar results were obtained in other stable clones.
# Renin gene promoter analysis. Plasmid pR1C-4.1 CAT that contains 4.1 kb 5′-flanking sequence of mouse Ren-1^c gene (Petrovic et al. 1996) was provided by Dr. K. W. Gross (Roswell Park Cancer Institute, Buffalo, N.Y.). To generate pGL-117 bp reporter plasmid, the 123 bp renin minimal promoter fragment (+6 to −117) was released from pR1C-4.1 CAT with XbaI and BamHI and inserted into the HindIII site of pGL3-basic vector (Promega, Madison, Wis.). To generate pGL-4.1 kb reporter plasmid, the BamHI fragment (−4.1 kb to −118 bp) from pRI C-4.1 CAT was inserted into the BglII site of pGL-117 bp. To analyze the activity of renin gene promoter, As4.1-hVDR cells were transfected with the reporter plasmids by electroporation according to Shi et al. (2001) using a Bio-Rad Gene Pulser (Bio-Rad, Hercules, Calif.). pCMV-β-gal plasmid was co-transfected as an internal control. pGL3-control plasmid (Promega) was used as the positive control. The transfected cells were treated with ethanol or 10^−8 M of 1,25(OH)2D3 in Opti-MEM medium (Invitrogen) containing 2% charcoal-treated FBS four hr after electroporation, and luciferase activity was determined at 48 hr after initial transfection, using the Luciferase Assay System (Promega). Luciferase activity was normalized to β-gal activity obtained from the same electroporation, and presented as fold induction based on the basal activity of pGL3-basic empty vector determined in the same experiment.
# renin mRNA, As4.1 cells = experiment: Renin mRNA by northern blot in As4.1 cells with or without transient transfection; assay type: cell-based, mouse
# Source text: A. As4.1 cells were transiently transfected with (+) or without (−) pcDNA-hVDR plasmid containing the full-length human VDR cDNA and then. treated with 5×10^−8 M of 1,25(OH)2D3 (+) or ethanol (−) for 24 hrs. Total cellular RNA was isolated and analyzed by northern blot with renin and 36B4 cDNA probes. B. Quantitative results of northern blot analyses obtained from three independent experiments. C, ethanol-treated; VD, 1,25(OH)2D3-treated; T, transfected with pcDNA-hVDR and treated with ethanol; T/VD, transfected with pcDNA-hVDR and treated with 1,25(OH)2D3. *, P<0.001 vs. C, VD or T value. C. Renin mRNA expression in As4.1 cells (left panel), and in As4.1 cells transfected with pcDNA-PTH/PTHrPR containing the rat PTH/PTHrP receptor cDNA (right panel) and treated with bovine PTH (1-34) as indicated. −, untreated.
# as §1
# As4.1 cell culture and transfection. […] Total RNA was isolated and analyzed for renin mRNA expression by northern blot. […] The As4.1-hVDR stable clones were treated with different doses of 1,25(OH)2D3 for 24 hr in serum-free media, and total RNA were analyzed by northern blot to examine renin expression.
# renin mRNA in the kidney = experiment: Renin mRNA in the kidney of treated mice (Northern blot); assay type: in vivo, mouse
# Method: A. […] The 2 doses were given in two consecutive days at 9 am. The 5 doses were given in three consecutive days at 9 am and 7 pm for the first two days, and at 9 am on the third day. Total renal RNA was isolated 6 hr after the last injection. Renin, calbindin-D9k (CaBP-D9k) and 36B4 mRNA levels were determined by Northern blot analysis. B. Quantitation of renin mRNA levels.
# (A) Blood ionized calcium levels.
# As a control for vitamin D action, Calbindin-D9k stimulation was measured. Quantitative data were presented below the Northern blot gels.
# Total kidney RNAs were separated on agarose gels (20 μg/lane). Membranes were hybridized sequentially with 32P-labeled renin and 36B4 cDNA probes. The relative amount of renin mRNA was quantitated after being normalized with 36B4 mRNA levels. […] (B) Quantitative results-from Northern blots in (A).
# Animals and treatment. […] VDR^−/− and Gcm2^−/− mice were generated through breeding of heterozygous mice and identified by PCR with tail genomic DNA as the template, and the wild-type littermates were used as controls. […] To increase the sodium load, mice were fed the normal rodent diet supplemented with 8% NaCl for 1, 3, 5 and 7 days. […] Wild-type mice were injected (i.p.) with vehicle or 30 pmole of 1,25(OH)2D3 dissolved in propylene glycol. Mice were sacrificed by exsanguination under anesthesia and the blood was collected into ice-cold tubes for serum isolation, or into ice-cold tubes containing 50 μl of EDTA (pH 8.0) and 100 U/ml aprotinin for plasma isolation. The determination of water and food intake, as well as urine collection, were carried out by using metabolic cages.
# as §1, with “To determine renin or angiotensinogen mRNA expression, total RNA (20 μg/lane) was separated on a 1.2% agarose gel containing 0.6 M formaldehyde, transferred onto a Nylon membrane (MSI, Westborough, Mass.) and crosslinked in a UV crosslinker (Bio-Rad, Hercules, Calif.). Hybridization was performed as described by Li et al. (2001).” left out
# [3] = Blood ionized calcium and survival of treated mice; assay type: in vivo, mouse; conditions: for Blood calcium level: daily dose 1.5 μg/kg body weight for one week
# Source text: Two-month old wildtype mice were fed the normal diet supplemented with 2.5% strontium chloride for 7 weeks before sacrifice. A. Northern blot analysis of renin mRNA expression in the kidney from non-treated and strontium-treated wildtype mice. Each lane represents an individual animal. B. Quantitative results of the northern analysis. C. Blood ionized calcium concentration determined at the end of the treatment (n=5 in each group). In both b and c, NT, non-treated; STR, strontium-treated, *, P<0.01 vs. NT value.
# (A) Blood ionized calcium levels. Normal mice (n=5) were treated with vehicle (control), 1,25(OH)2D3 (VD3) or compound #9 at a daily dose of 1.5 μg/kg body weight for one week. […] (B) Renin mRNA levels in the kidneys of treated mice, as determined by quantitative Northern blots. *, P<0.01.
# Measurement of blood and urine parameters. The concentration of blood ionized calcium was determined using a Ciba/Coming 634 Ca^++/pH analyzer (Chiron Diagnostics, East Walpole, Mass.) from 50 μl of whole blood obtained from tail snipping. Blood glucose concentrations were determined by using One Touch Sure Step test strips (Life Scan, Milpitas, Calif.). Serum intact parathyroid hormone (iPTH) was determined using a commercial ELISA kit (Immutopics, San Clemente, Calif.). The concentration of serum and urinary Na^+, K^+, and creatinine was determined by a Beckman Coulter CX5 Autoanalyzer as described by Li et al. (2001).
# [4] = wildtype mice, normal diet with 2.5% strontium chloride for seven weeks
molecule,measurement,setting,value
"C=C1/C(=C\C=C2/CCC[C@]3(C)[C@@H]([C@H](C)CCCC(C)(C)O)CC[C@@H]23)C[C@@H](O)C[C@@H]1O [1,25-dihydroxyvitamin D3]",Renin expression in stable As4.1-hVDR clones at different doses,[1]; not seen in As4.1-pcDNA cells,dose-dependent suppression
same,Reduction of the level of renin mRNA,"[1]; stable As4.1-hVDR cells, 10^−8 M, 24 hr",about 90%
same,Time of treatment after which suppression of renin mRNA was evident,"[1]; time-course studies, As4.1-hVDR cells",6 h
same,Effect on the activity of the SV40 promoter in pGL3-Control plasmid,[2]; As4.1-hVDR cells,no effect
same,Reduction of the activity of the 4.1 kb renin gene promoter,"[2]; pGL-4.1 kb, luciferase at 48 hr after transfection",more than 80%
same,Renin mRNA expression in As4.1 cells,"renin mRNA, As4.1 cells; As4.1 cells not transfected, 5×10^−8 M",moderate reduction
same,Reduction of renin mRNA expression,"renin mRNA, As4.1 cells; As4.1 cells transiently transfected with pcDNA-hVDR, 5×10^−8 M, 24 hrs",about 90%
same,mRNA of renal calbindin-D9k,"renin mRNA in the kidney; wildtype mice, 30 pmole/dose i.p., control vitamin D target gene",significantly increased
same,Decrease of renal renin expression,"renin mRNA in the kidney; wildtype mice, five doses of 30 pmole i.p. in three days",50%
same,Decrease of renal renin expression,"renin mRNA in the kidney; wildtype mice, two doses of 30 pmole/dose i.p. in two consecutive days",35%
same,Deaths on day 7,"[3]; normal mice, daily dose 1.5 μg/kg body weight",2 animals out of the 5 mice
same,Blood calcium level,[3]; normal mice,severe hypercalcemia
"C=C1C(=CC=C2CCCC3(C)C2CCC3C(CCCC(C)(C)O)CCCC(C)(C)O)CC(O)CC1O (centres unmarked) [#4, 1,25-dihydroxy-21(3-methyl-3-hydroxy-butyl)-cholecalciferol]",Relative inhibitory activity (renin suppressive activity of Gemini analogues),[1]; As4.1-hVDR cells,++
same,Suppression of renin promoter activity (luciferase),[2],super-potency
"CC(C)(O)CCCC(CCCC(C)(C)O)C1CCC2C(=CC=C3CC(O)CC(O)C3)CCCC21C (centres unmarked) [#9, 1,25-dihydroxy-21(3-methyl-3-hydroxy-butyl)-19-nor-cholecalciferol]",Suppression of renin promoter activity (luciferase),[2],super-potency
same,Renin mRNA expression in the kidneys,"renin mRNA in the kidney; normal mice, daily dose 1.5 μg/kg body weight for one week",reduced
same,Reduction in renin mRNA levels in the kidneys,"renin mRNA in the kidney; normal mice, daily dose 5 μg/kg body weight for one week",54%
same,Reduction in renin mRNA levels in the kidneys,"renin mRNA in the kidney; normal mice, daily dose 12 μg/kg body weight for one week",76%
same,Blood calcium level,[3]; normal mice,minimal increase
"C=C1C(=CC=C2CCCC3(C)C2CCC3C(CCCC(C)(C)O)CCC(O)C(C)(C)O)CC(O)CC1O [#18, 1,25-dihydroxy-21(2R,3-hydroxy-3-methylbutyl)-20S-cholecalciferol]",Relative inhibitory activity (renin suppressive activity of Gemini analogues),[1]; As4.1-hVDR cells,++
"[Cl-].[Cl-].[Sr+2] [strontium, strontium chloride]",Renin mRNA expression in the kidney,renin mRNA in the kidney; [4],significant increase
same,Blood ionized calcium,[3]; [4],hypocalcemic
"PTH(1-34): bovine PTH(1-34), parathyroid hormone fragment used to treat As4.1 cells (AVSEIQFMHNLGKHLSSMERVEWLRKKLQDVHNF; UniProt P01268 32-65, looked up, fragment)",Renin expression in PTH-treated As4.1 cells,"renin mRNA, As4.1 cells; As4.1 cells, or As4.1 transfected with pcDNA-PTH/PTHrPR, different doses",No increase in renin expression
